Test results taken from patent EP4810040A2, “INHIBITORS OF APOL1 AND METHODS OF USING SAME” (priority 2020, dated 2022).
Read-outs that look alike come from different tables or passages of the source.

Target: T1, APOL1 G1 (Homo sapiens, UniProt O14791, I384M/S342G)
T1 sequence (O14791 28-398 S342G/I384M): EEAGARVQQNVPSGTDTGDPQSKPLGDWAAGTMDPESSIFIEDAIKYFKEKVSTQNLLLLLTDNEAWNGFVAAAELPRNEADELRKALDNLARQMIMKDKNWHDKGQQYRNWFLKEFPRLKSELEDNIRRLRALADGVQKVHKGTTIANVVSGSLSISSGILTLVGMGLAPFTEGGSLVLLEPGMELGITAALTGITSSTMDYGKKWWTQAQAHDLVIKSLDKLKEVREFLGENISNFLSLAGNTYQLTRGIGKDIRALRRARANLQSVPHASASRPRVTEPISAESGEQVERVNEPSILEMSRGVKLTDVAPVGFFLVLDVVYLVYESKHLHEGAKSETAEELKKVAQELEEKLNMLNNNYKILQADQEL
Test: MultiTox-Fluor Multiplex Cytotoxicity Assay, tet-inducible APOL1 G1 T-REx-HEK293 cells
Type: cell-based
Set-up: expressed in transfected cells; host or cells: T-REx HEK293, clone G1 DC3.25 (pAAVS1-Puro-APOL1 G1)
Settings: for IC90: read-out: Multi-Tox Assay IC90; for Emax: read-out: Multi-Tox Assay Max Activity (%)
Experimental: The MultiTox-Fluor Multiplex Cytotoxicity Assay is a single-reagent-addition, homogeneous, fluorescence assay that measures the number of live and dead cells simultaneously in culture wells. The assay measures cell viability and cytotoxicity by detecting two distinct protease activities. The live-cell protease activity is restricted to intact viable cells and is measured using a fluorogenic, cell-permeant peptide glycyl-phenylalanylamino fluorocoumarin (GF-AFC) substrate. The substrate enters intact cells, where it is cleaved to generate a fluorescent signal proportional to the number of living cells. […] A second, cell-impermeant, fluorogenic peptide substrate (bis-AAF-R110 Substrate) is used to measure dead-cell protease that has been released from cells that have lost membrane integrity. A ratio of dead to live cells is used to normalize data.
Briefly, the tet-inducible transgenic APOL1 T-REx-HEK293 cell lines were incubated with 50 ng/mL tet to induce APOL1 in the presence of 3-(2-(4-fluorophenyl)-1H-indol-3-yl)-N-((3S,4R)-4-hydroxy-2-oxopyrrolidin-3-yl)propenamide at […], 0.0045, 0.0015, 0.0005 µM in duplicate for 24 hours in a humidified 37°C incubator. The MultiTox reagent was added to each well and placed back in the incubator for an additional 30 minutes. The plate was read on the EnVision plate reader. A ratio of dead to live cells was used to normalize, and data was imported, analyzed and fit using Genedata Screener (Basel, Switzerland) software. Data was normalized using percent of control, no tet (100% viability), and 50 ng/mL tet treated (0% viability),and fit using Smart Fit. The reagents, methods, and complete protocol for the MultiTox assay are described below. Table 42. Reagents Used in the Multi-Tox Assay
Human embryonic kidney (HEK293) cell lines containing a tet-inducible expression system (T-REx™; Invitrogen, Carlsbad, CA) and Adeno-associated virus site 1 pAA VS1-Puro-APOL1 G0 or pAAVS1-Puro-APOL1 G1 or pAAVS1-Puro-APOL1 G2 Clones G0 DC2.13, G1 DC3.25, and G2 DC4.44 were grown in a T-225 flask at ~90% confluency in cell growth media (DMEM, 10% Tet-free FBS, 2 mM L-glutamine, 100 Units/mL penicillin-streptomycin, 5 µg/mL blasticidin S HCl, 1 µg/mL puromycin dihydrochloride). Cells were washed with DPBS and then trypsinized to dissociate from the flask. Media was used to quench the trypsin, cells were then pelleted at 200g and resuspended in fresh cell assay media (DMEM, 2% Tet-free FBS, 2 mM L-glutamine, 100 Units/mL penicillin-streptomycin). Cells were counted and diluted to 1.17 x 10^6 cells/mL. 20 µL of cells (23,400/well) were dispensed to every well of a 384-well Poly-D-Lysine coated plate using the Multidrop dispenser. The plates were then incubated at room temperature for one hour.
Tetracycline is needed to induce APOL1 expression. 1 mg/mL tet stock in water was diluted to 250 ng/mL (5X) in cell assay media. 60 µL of cell assay media (no tet control) was dispensed in columns 1 and 24, and 60 µL of 5X tet was dispensed in 384-PP-round bottom plate in columns 2 to 23 with the Multidrop dispenser.
Assay ready plates from the Global Compound Archive were ordered using template 384_APOL1Cell_DR10n2_50uM_v3. Compounds were dispensed at 200 nL in DMSO. The final top concentration was 10 µM with a 10 point 3-fold dilution in duplicate in the MultiTox assay.
20 µL were transferred from the 5X tet plate to the ARP and mixed, then 5 µL of 5X tet and the compounds were transferred to the cell plate and mixed using the Bravo. The cell plate was placed in the humidified 37°C 5% CO2 incubator for 24 hours.
The MultiTox-Fluor Multiplex Cytotoxicity Assay was performed in accordance with the manufacturer's protocol. […]

[1] = HEK293, Multi-Tox Assay, APOL1 variant (G0/G1/G2) of the HEK293 cells not given
[2] = Multi-Tox Assay, APOL1 variant not given

SMILES: COC(=O)Cn1cc([C@@H]2C[C@]3(C[C@H](C)N2)OC[C@@H](O)c2cc(Cl)sc23)nn1 [Compound 263]
- IC90 [1]: > 0.5 µM
- Multi-Tox Assay Max Activity (%) [2]: 86.0%

SMILES: C[C@H]1C[C@@]2(C[C@@H](c3ccc(O)c(F)c3)N1)OCCc1cc(Cl)sc12 [Compound 51]
- IC90 [1]: < 0.05 µM
- Multi-Tox Assay Max Activity (%) [2]: 99.7%

SMILES: C[C@H]1C[C@@]2(C[C@@H](c3cn(Cc4ccc(OC5CCOCC5)cc4)nn3)N1)OCC(F)(F)c1cc(Cl)sc12 [Compound 308]
- IC90 [1]: > 0.5 µM
- Multi-Tox Assay Max Activity (%) [2]: 95.0%

SMILES: C[C@H]1C[C@@]2(C[C@@H](c3cnc(N)nc3)N1)OCCc1cc(Cl)sc12 (racemic) [Compound 57]
- IC90 [1]: < 0.05 µM
- Multi-Tox Assay Max Activity (%) [2]: 99.7%

SMILES: C[C@H]1C[C@@]2(C[C@@H](c3cn(C)nn3)N1)OCCc1cc(Cl)sc12 [Compound 1, (2'S, 6'S, 7S)-2-chloro-2'-methyl-6'-(1-methyltriazol-4-yl)spiro[4,5-dihydrothieno[2,3-c]pyran-7,4'-piperidine]]
- IC90 [1]: < 0.05 µM
- Emax [2]: 99.3%

SMILES: CCc1cc2c(s1)CCOC21CC(C)NC(c2cn(C)nn2)C1 (single isomer, unassigned) [Compound 4]
- IC90 [1]: < 0.05 µM
- Emax [2]: 99.3%

SMILES: CCC(O)Cn1cc([C@@H]2C[C@]3(C[C@H](C)N2)OCCc2cc(Cl)sc23)nn1 (mixture of isomers) [Compound 111]
- IC90 [1]: 0.05 to 0.5 µM
- Multi-Tox Assay Max Activity (%) [2]: 99.3%

SMILES: COc1ccc(Cn2cc([C@@H]3C[C@]4(C[C@H](C)N3)OC[C@@H](O)c3cc(Cl)sc34)nn2)cc1F [Compound 245]
- IC90 [1]: 0.05 to 0.5 µM

SMILES: C[C@H]1C[C@@]2(C[C@@H](c3cn(Cc4ccc(S(C)(=O)=O)cc4)nn3)N1)OCC(F)(F)c1cc(Cl)sc12 [Compound 355]
- IC90 [1]: 0.05 to 0.5 µM
- Multi-Tox Assay Max Activity (%) [2]: 98.0%

SMILES: C[C@H]1C[C@@]2(C[C@@H](c3cnc4c(cnn4C)c3)N1)OCCc1cc(Cl)sc12 (racemic) [Compound 26]
- IC90 [1]: < 0.05 µM
- Multi-Tox Assay Max Activity (%) [2]: 100.0%

SMILES: Cc1nn(C)cc1[C@@H]1C[C@]2(C[C@H](C)N1)OCCc1cc(Cl)sc12 (racemic) [Compound 142]
- IC90 [1]: 0.05 to 0.5 µM

SMILES: C[C@H]1C[C@@]2(C[C@@H](c3cn(CCC#N)nn3)N1)OC[C@@H](O)c1cc(Cl)sc12 [Compound 286]
- IC90 [1]: 0.05 to 0.5 µM
- Multi-Tox Assay Max Activity (%) [2]: 98.0%

SMILES: C[C@H]1C[C@@]2(C[C@@H](c3cn(CCO)nn3)N1)OC[C@@H](O)c1cc(Cl)sc12 [Compound 244]
- IC90 [1]: 0.05 to 0.5 µM
- Multi-Tox Assay Max Activity (%) [2]: 100.0%

SMILES: C[C@H]1C[C@@]2(C[C@@H](c3cn(CC4CCC(=O)NC4)nn3)N1)OC[C@@H](O)c1cc(Cl)sc12 (some centres unmarked) [Compound 254]
- IC90 [1]: > 0.5 µM
- Multi-Tox Assay Max Activity (%) [2]: 92.0%

SMILES: Cc1noc2cc([C@@H]3C[C@]4(C[C@H](C)N3)OCCc3cc(Cl)sc34)ccc12 (racemic) [Compound 25]
- IC90 [1]: < 0.05 µM
- Multi-Tox Assay Max Activity (%) [2]: 100.0%

SMILES: Cn1cc([C@@H]2C[C@]3(C[C@H](C4CC4)N2)OC[C@@H](O)c2cc(Cl)sc23)nn1 [Compound 382, (2'R,4S,6'S,7S)-2-chloro-2'-cyclopropyl-6'-(1-methyltriazol-4-yl)spiro[4,5-dihydrothieno[2,3-c]pyran-7,4'-piperidine]-4-ol]
- IC90 (Multi-Tox Assay, APOL1 variant (G0/G1/G2) not stated in Table 46): 0.05 to 0.5 µM
- Emax (Multi-Tox Assay, APOL1 variant not stated in Table 46): 100%

SMILES: Cc1ncoc1[C@@H]1C[C@]2(C[C@H](C)N1)OCCc1cc(Cl)sc12 (racemic) [Compound 157]
- IC90 [1]: > 0.5 µM
- Multi-Tox Assay Max Activity (%) [2]: 96.3%
